Article PMC8541353, “A Novel Phenylpyrrolidine Derivative: Synthesis and Effect on Cognitive Functions in Rats with Experimental Ishemic Stroke” (Molecules, 2021)

Tests used:
rats with MCAO [1] = assay: Beam walking test (BWT) after MCAO; type: in vivo, Wistar rats; parameters: key to Left forelimb score / Right forelimb score / Left hindlimb score / Right hindlimb score: score = errors + 0.5 × slides × 100/total number of steps; conditions: for Animals that failed to train for the BWT test: after MCAO, days 12–14; for Left forelimb score / Left hindlimb score / Right forelimb score / Right hindlimb score: day 14 after MCAO, mean ± SD
Protocol: A MCAO animal model was used to characterize the effects of compound 1 on the development and resolution of stroke. At the baseline, we performed the MRI and hole-board test before MCAO surgery. Once animals recovered after the surgery, we stratified them based on their background psycho-emotional status and performed a control MRI to access whether the occlusion was sufficient or not. […] From 24 h to day 7, the neurological status was assessed daily according to the neurological scale (mNSS). By the end of day 7, animals underwent MRI. In addition, MRI was performed on days 14 and 28 (Shceme 3)The hole-board test was repeated on days 10 and 24. The degree of motor function impairment, the deficit of exploratory behavior, and the recovery process were assessed in the beam walking test (BWT), which was performed twice on days 12 and 14. An open field test was carried out on days 16 and 26.
The increased locomotor activity, expanded orientational research activity, and reduced anxiety and depressive behavior in rats treated with compound 1 highlighted the possible benefits of the compound in post-ischemic stroke management. As stroke affects not only locomotor activity but also the cognitive behavior, we conducted an additional beam walking test. It is proven that depression and anxiety in the post-stroke period increase the risk of mortality and affect the functional recovery of patients. There is a direct relationship between the severity of cognitive deficits, patients’ survival, and their successful social integration. Conventionally, BWT is aimed at finding motor deficits on the contralateral side of the brain lesion. However, based on the test methodology, which was testing animals before surgery and on the 12th–14th days after surgery, we can indirectly conclude whether the memory trace is preserved or lost. […] Most of the animals from the saline group sat still and one rat fell. Since the hippocampus, which is a structure responsible for the formation of both […] and long-term memory, is involved in the pathological process of ischemia, in rats, we hypothesized that the ability to reproduce and form a memorable trace can be also affected in our MCAO model. According to MRI data, the hippocampus was indeed affected by MCAO. Thus, compound 1 possibly helped to restore neural connections in the hippocampus as quickly as possible.
In the first experimental series, the following test systems were used: HBT (OpenScience, Russia), OFT (OpenScience), and LDT (OpenScience). The design for the second experimental series was as follows. All rat behavioral changes were evaluated during the four weeks after stroke simulation. Individuals who performed these procedures were double-blinded. General neurological disorders were assessed using the modified neurological severity score (mNSS). Motor and cognitive impairment were evaluated using the following functional tests: BWT (OpenScience), HBT (OpenScience), and OFT (OpenScience). The BWT was performed between postoperative days 12 and 14. In this test, motor dysfunction in all four limbs was evaluated; specifically, the number of steps, errors, and slides were counted. The overall score was calculated using the following formula: score = errors + 0.5 × slides × 100/total number of steps [47]. The beam apparatus consists of 165 cm beams with a flat surface of 10 mm or 6 mm width, resting 100 cm above the table top on two poles. A black box is placed at the end of the beam as the finish point. Nesting material from home cages is placed in the black box to attract the rat to the finish point. A lamp (with 60-watt light bulb) is used at the start to stimulate the animals to move towards the end.

rats with MCAO [2] = assay: Survival within 28 days after MCAO (Kaplan-Meier, log-rank); type: in vivo, Wistar rats; conditions: 28 days after first administration, log-rank test
Protocol: All statistical analyses were performed using the IBM® SPSS® Statistics Version 23.0 and R software Version 3.3.2 (R Foundation for Statistical Computing, Vienna, Austria). For normally distributed quantitative continuous variables, the mean and standard deviation (SD) values were calculated and presented as descriptive statistics. For ordinal variables, median and 25- and 75-percentiles were calculated. For qualitative variables, the absolute count and percentage value for each category were calculated. For quantitative variables, the normality of distribution was verified using frequency histograms and Kolmogorov–Smirnov test. A two-tailed p-value < 0.05 was considered statistically significant. To compare changes in structure displacement, lesion size, and neurological scale, a general linear repeated measures model with a group as a fixed factor was used. One-way multivariate analysis of variance was used in the analysis of behavior. Experimental groups were designed to have an equal sample size (8 vs. 8 rats) based on sample size calculations for the independent sample t-test using Statistica 10 software (type I error 0.05, type II error 0.20). Animal survival was estimated by the Kaplan–Meier method using the log-rank test.

SMILES	Animals that failed to train for the BWT test (rats with MCAO [1])	Left forelimb score (rats with MCAO [1])	Left hindlimb score (rats with MCAO [1])	Right forelimb score (rats with MCAO [1])	Right hindlimb score (rats with MCAO [1])	Survival of animals vs other groups (rats with MCAO [2])
O=C(CN1CC(c2ccccc2)CC1=O)NCCS(=O)(=O)[O-].[K+] (stereo not drawn) [Compound 1, potassium 2-[2-(2-oxo-4-phenylpyrrolidin-1-yl)acetamido]ethane-1-sulfonate]	No animals failed	42.2 ± 28.0	28.8 ± 15.3	11.6 ± 13.8	45.8 ± 30.4	no significant differences
NC(=O)CN1CCCC1=O [Piracetam, reference compound]	more than half of the animals and five	32.8 ± 26.4	24.8 ± 22.2	12.4 ± 16.0	36.0 ± 30.4	no significant differences
